IC50 data for 26 compounds are collected here from patent publication US8367838B2, “Amines or amino alcohols as GLYT1 inhibitors” (Hoffmann-La Roche Inc., priority 2009, dated 2013).

Counter-ions that a name gives are not always drawn.

The experiment addresses T1, mGlyT-1b (Mus musculus, UniProt P28571).
T1 construct: host or cells: Flp-in-CHO
T1 sequence (P28571 1-651 isoform P28571-2): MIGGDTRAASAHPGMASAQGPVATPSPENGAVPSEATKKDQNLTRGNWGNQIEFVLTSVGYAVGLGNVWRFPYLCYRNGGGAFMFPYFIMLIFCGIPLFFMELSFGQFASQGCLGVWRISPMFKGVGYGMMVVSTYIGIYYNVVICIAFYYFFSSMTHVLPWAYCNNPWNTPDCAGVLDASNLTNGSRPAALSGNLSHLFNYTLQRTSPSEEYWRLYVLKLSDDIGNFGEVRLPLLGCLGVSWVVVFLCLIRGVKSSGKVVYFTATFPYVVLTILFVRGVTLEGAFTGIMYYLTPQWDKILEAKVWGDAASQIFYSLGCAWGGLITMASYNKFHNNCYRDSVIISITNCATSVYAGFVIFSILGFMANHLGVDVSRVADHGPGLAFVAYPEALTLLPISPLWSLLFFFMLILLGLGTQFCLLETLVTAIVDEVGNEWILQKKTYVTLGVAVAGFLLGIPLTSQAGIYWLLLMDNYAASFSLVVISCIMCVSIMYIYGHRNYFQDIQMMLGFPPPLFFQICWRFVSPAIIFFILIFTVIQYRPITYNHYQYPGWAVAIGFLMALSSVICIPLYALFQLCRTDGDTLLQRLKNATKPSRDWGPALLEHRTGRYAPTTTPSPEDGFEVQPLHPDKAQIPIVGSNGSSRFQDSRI
In words: Glycine uptake inhibition assay (mGlyT-1b), [3H]-glycine uptake in transfected Flp-in-CHO cells. It is filed as cell-based. As to conditions: Flp-in-CHO cells transfected with mGlyT-1b cDNA; [3H]-glycine 60 nM and 25 μM non-radioactive glycine; 20 min preincubation at 22° C.; read-out: IC50 (μM) at GlyT-1; Ic50 (hglyt1b). The method, boiled down: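 Flp-in CHO cells stably expressing mouse GlyT-1b were preincubated 20 min at 22 °C with inhibitor in pH 7.4 Hepes-Tris buffer. Uptake was then run with 60 nM [3H]-glycine plus 25 μM unlabeled glycine, with 10 mM glycine defining nonspecific uptake. Cell radioactivity was counted by scintillation to derive IC50.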
Usually IC50 stands for the concentration needed to halve the response being measured. In the case of `CS(=O)(=O)c1cncc(-c2ccc([C@@H](O)[C@@H](N)c3ccc(Cl)c(Cl)c3)cc2)c1` (racemic) [Example 82, rac-erythro-2-Amino-2-(3,4-dichloro-phenyl)-1-[4-(5-methanesulfonyl-pyridin-3-yl)-phenyl]-ethanol], the IC50 amounted to 0.047 µM. As to `N[C@@H](c1ccc(Cl)c(Cl)c1)[C@H](O)c1ccc(-c2cncc(F)c2)cc1` (racemic) [Example 83, rac-erythro-2-Amino-2-(3,4-dichloro-phenyl)-1-[4-(5-fluoro-pyridin-3-yl)-phenyl]-ethanol], the IC50 stood at 0.059 µM. Then `N[C@@H](c1ccc(Cl)c(F)c1)[C@H](O)c1ccc(-c2cccnc2)cc1` (racemic) [Example 84], with 0.033 µM. Then `N[C@@H](c1ccc(Cl)c(F)c1)[C@H](O)c1ccc(-c2cncc(F)c2)cc1` (racemic) [Example 85, rac-erythro-2-Amino-2-(4-chloro-3-fluoro-phenyl)-1-[4-(5-fluoro-pyridin-3-yl)-phenyl]-ethanol], with 0.095 µM; and `Cc1cc([C@H](N)[C@H](O)c2ccc(-c3cccnc3)cc2)ccc1Cl` (racemic) [Example 86, rac-erythro-2-Amino-2-(4-chloro-3-methyl-phenyl)-1-(4-pyridin-3-yl-phenyl)-ethanol], with 0.049 µM; and `N[C@@H](c1ccc(C(F)(F)F)cc1)[C@H](O)c1ccc(-c2cccnc2)cc1` (racemic) [Example 88, rac-erythro-2-Amino-1-(4-pyridin-3-yl-phenyl)-2-(4-trifluoromethyl-phenyl)-ethanol], with 0.255 µM. For `CN(C)c1cccc(-c2ccc([C@@H](O)[C@@H](N)c3ccc(Cl)c(Cl)c3)cc2)c1` (racemic) [Example 89, rac-erythro-2-Amino-2-(3,4-dichloro-phenyl)-1-(3′-dimethylamino-biphenyl-4-yl)-ethanol], the IC50 came to 0.305 µM.

As for `Cc1ccc([C@H](N)[C@H](O)c2ccc(-c3cccnc3)cc2)cc1F` (racemic) [Example 91, rac-erythro-2-Amino-2-(3-fluoro-4-methyl-phenyl)-1-(4-pyridin-3-yl-phenyl)-ethanol], the IC50 turned out to be 0.073 µM. Then `Cc1ccc([C@H](N)[C@H](O)c2ccc(-c3cccnc3)cc2)cc1Cl` (racemic) [Example 92, rac-erythro-2-Amino-2-(3-chloro-4-methyl-phenyl)-1-(4-pyridin-3-yl-phenyl)-ethanol], with 0.084 µM; and `Cc1ccc([C@H](N)[C@H](O)c2ccc(-c3cncc(F)c3)cc2)cc1Cl` (racemic) [Example 93, rac-erythro-2-Amino-2-(3-chloro-4-methyl-phenyl)-1-[4-(5-fluoro-pyridin-3-yl)-phenyl]-ethanol], with 0.094 µM. Then `Cc1ccc([C@H](N)[C@H](O)c2ccc(-c3cncc(F)c3)cc2)cc1F` (racemic) [Example 94, rac-erythro-2-Amino-2-(3-fluoro-4-methyl-phenyl)-1-[4-(5-fluoro-pyridin-3-yl)-phenyl]-ethanol], with 0.104 µM; and `N[C@@H](c1ccc(C(F)(F)F)c(F)c1)[C@H](O)c1ccc(-c2cccnc2)cc1` (racemic) [Example 95, rac-erythro-2-Amino-2-(3-fluoro-4-trifluoromethyl-phenyl)-1-(4-pyridin-3-yl-phenyl)-ethanol], with 0.158 µM; and `N[C@@H](c1ccc(C(F)(F)F)c(F)c1)[C@H](O)c1ccc(-c2cncc(F)c2)cc1` (racemic) [Example 96, rac-erythro-2-Amino-1-[4-(5-fluoro-pyridin-3-yl)-phenyl]-2-(3-fluoro-4-trifluoromethyl-phenyl)-ethanol], with 0.733 µM. For `N[C@@H](c1ccc(Cl)cc1F)[C@H](O)c1ccc(-c2cccnc2)cc1` (racemic) [Example 97, rac-erythro-2-Amino-2-(4-chloro-2-fluoro-phenyl)-1-(4-pyridin-3-yl-phenyl)-ethanol], the IC50 turned out to be 0.267 µM.

Regarding `CO[C@H](c1ccc(-c2cccnc2)cc1)[C@@H](N)c1ccc(Cl)c(Cl)c1` (racemic) [Example 98, rac-erythro-1-(3,4-Dichloro-phenyl)-2-methoxy-2-(4-pyridin-3-yl-phenyl)-ethylamine dihydrochloride], the IC50 is 0.388 µM. On to `CCO[C@H](c1ccc(-c2cncc(F)c2)cc1)[C@@H](N)c1ccc(Cl)c(Cl)c1` (racemic) [Example 99, rac-erythro-[1-(3,4-Dichloro-phenyl)-2-ethoxy-2-[4-(5-fluoro-pyridin-3-yl)-phenyl]-ethylamine trifluoroacetate], for which the IC50 came out at 0.285 µM. Then `N[C@@H](c1ccc(Cl)c(Cl)c1)[C@H](O)c1ccc(Oc2ccccc2)cc1` (racemic) [Example 100, rac-erythro-2-Amino-2-(3,4-dichloro-phenyl)-1-(4-phenoxy-phenyl)-ethanol], with 0.323 µM.

Take `N[C@@H](c1ccc(Cl)cc1)[C@H](O)c1ccc(OCC(F)(F)C(F)(F)F)cc1F` (racemic) [Example 101, rac-erythro-2-Amino-2-(4-chloro-phenyl)-1-[2-fluoro-4-(2,2,3,3,3-pentafluoro-propoxy)-phenyl]-ethanol]: the IC50 is 0.334 µM. Then `CC(Oc1ccc([C@@H](O)[C@@H](N)c2ccc(Cl)cc2)cc1)C(F)(F)F` (mixture of isomers) [Example 102, rac-erythro-2-Amino-2-(4-chloro-phenyl)-1-[4-(2,2,2-trifluoro-1-methyl-ethoxy)-phenyl]-ethanol], with 0.384 µM; and `N[C@@H](c1ccc(Cl)c(Cl)c1)[C@H](O)c1ccc(-c2cccc([N+](=O)[O-])c2)cc1` (racemic) [Example 103, rac-erythro-2-Amino-2-(3,4-dichloro-phenyl)-1-(3′-nitro-biphenyl-4-yl)-ethanol], with 0.412 µM. Consider `NC(=O)c1cccc(-c2ccc([C@@H](O)[C@@H](N)c3ccc(Cl)c(Cl)c3)cc2)c1` (racemic) [Example 104, rac-erythro-4′-[2-Amino-2-(3,4-dichloro-phenyl)-1-hydroxy-ethyl]-biphenyl-3-carboxylic acid amide], for which the IC50 was found to be 0.056 µM. With `CC(C)Oc1ccc(F)c(-c2ccc([C@@H](O)[C@@H](N)c3ccc(Cl)c(Cl)c3)cc2)c1` (racemic) [Example 105, rac-erythro-2-Amino-2-(3,4-dichloro-phenyl)-1-(2′-fluoro-5′-isopropoxy-biphenyl-4-yl)-ethanol], the IC50 turned out to be 0.567 µM. Consider `CC(C)Oc1cccc(-c2ccc([C@@H](O)[C@@H](N)c3ccc(Cl)c(Cl)c3)cc2)c1` (racemic) [Example 106, rac-erythro-2-Amino-2-(3,4-dichloro-phenyl)-1-(3′-isopropoxy-biphenyl-4-yl)-ethanol], for which the IC50 stood at 0.851 µM. Then `CS(=O)(=O)c1cccc(-c2ccc([C@@H](O)[C@@H](N)c3ccc(Cl)c(Cl)c3)c(F)c2)c1` (single isomer, unassigned) [Example 6, (1R,2S or 1S,2R)-2-Amino-2-(3,4-dichloro-phenyl)-1-(3-fluoro-3′-methanesulfonyl-biphenyl-4-yl)-ethanol hydrochloride], with 0.012 µM; and `N[C@@H](c1ccc(Cl)c(Cl)c1)[C@H](O)c1ccc(-c2cncc(F)c2)cc1` (single isomer, unassigned) [Example 8, (1R,2S or 1S,2R)-2-Amino-2-(3,4-dichloro-phenyl)-1-[4-(5-fluoro-pyridin-3-yl)-phenyl]-ethanol trifluoroacetate], with 0.059 µM; and `N[C@@H](c1ccc(Cl)c(Cl)c1)[C@H](O)c1ccc(OC2CCOCC2)cc1` (single isomer, unassigned) [Example 41, (1R,2S or 1S,2R)-[2-Amino-2-(3,4-dichloro-phenyl)-1-[4-(tetrahydro-pyran-4-yloxy)-phenyl]-ethanol], with 0.021 µM.
